Experimental data published in US7129351B2, “Pyrimido compounds having antiproliferative activity” (Hoffmann-La Roche Inc., priority 2002, dated 2006).
Read-outs that look alike come from different tables or passages of the source.

Legend:
[1] = biological target: T1, Src (p60^c-src) (Homo sapiens, UniProt P12931); assay: SRC-Inhibitor-Assay (homogenous time-resolved fluorescence kinase assay); format: biochemical
T1 construct: purchased Upstate (UBI)
Method: The activity of the compounds according to this invention as inhibitors for the src-family tyrosine kinases was shown by using the following assay.
SRC-Inhibitor-Assay Parameters:
whereby both peptides were synthesized by an optimized solid phase peptide synthesis protocol (Merrifield (1962) Fed. Proc. Fed. Amer. Soc Exp. Biol. 21, 412) on an Zinsser SMP350 peptide synthesizer. Shortly, the peptide was assembled on 160 mg (22.8 μmol scale) of a Rink-Linker modified polystyrene solid phase by repeatedly conjugating a twenty fold excess of aminoacids each protected by temporary piperidine labile Fmoc- and permanent acid labile tert-Bu-, BOC- and O-tert-Bu-groups depending on the side chain function. The substrate sequence AEEEIYGEFEAKKKK was N-terminal additionally mounted with the spacer amino acids Aminocaprylic acid and Glycin. After cleavage of the N-terminal temporary protecting group the still attached and protected peptide was labeled with a 1.5 fold amount of LightCycler-Red 640-N-hydroxy succinimide ester (purchased from Roche Diagnostics GmbH) and triethylamine. After 3 hrs. the resin was washed with dimethylformamide and isopropanol until the eluates of the blue resin got colourless. […] The substrate was finally isolated by a preparative reverse phase HPLC purification. The purification yielded 12.2 mg RP-HPLC single peak pure blue material (lyophilisate). The identity was proven by MALDI mass spectroscopy [2720.0]. • Enzymes: Upstate Lck (p56^lck, active), Upstate Src (p60^c-src, partially purified) were purchased from UBI. • Homogenous, time-resolved Fluorescence Assay: Reader: Perkin Elmer, Wallac Viktor 1420-040 multilabel counter; Liquid handling system: Beckman Coulter, Biomek 2000. • ATP, Tween 20, HEPES were purchased from Roche Molecular Biochemicals, MgCl2 and MnCl2 were purchased from Merck Eurolab, TCEP was purchased from Pierce, 384 Well low volume fluorescence plates was purchased from Falcon. Assay Description:
At first the enzyme is pre-incubated for 15 min. at 15° C. in aqueous solution with corresponding amounts of inhibitors according to this invention. Then the phosphorylation reaction is started by adding a reaction mixture, containing ATP, Peptide and PT66, and subsequent shaking. The proceeding of this reaction is immediately monitored using time resolved fluorescence spectroscopy in a suitable well plate reader.
The IC50-values can be obtained from the reaction rates by using a non-linear curve fit (Excelfit).

[2] = ATP 5 μM, enzyme 2.5 U/mL, pre-incubated 15 min at 15° C., read-out: IC50 (μM) - Enzyme Inhibition Assay, Src

T1 sequence (P12931 whole entry): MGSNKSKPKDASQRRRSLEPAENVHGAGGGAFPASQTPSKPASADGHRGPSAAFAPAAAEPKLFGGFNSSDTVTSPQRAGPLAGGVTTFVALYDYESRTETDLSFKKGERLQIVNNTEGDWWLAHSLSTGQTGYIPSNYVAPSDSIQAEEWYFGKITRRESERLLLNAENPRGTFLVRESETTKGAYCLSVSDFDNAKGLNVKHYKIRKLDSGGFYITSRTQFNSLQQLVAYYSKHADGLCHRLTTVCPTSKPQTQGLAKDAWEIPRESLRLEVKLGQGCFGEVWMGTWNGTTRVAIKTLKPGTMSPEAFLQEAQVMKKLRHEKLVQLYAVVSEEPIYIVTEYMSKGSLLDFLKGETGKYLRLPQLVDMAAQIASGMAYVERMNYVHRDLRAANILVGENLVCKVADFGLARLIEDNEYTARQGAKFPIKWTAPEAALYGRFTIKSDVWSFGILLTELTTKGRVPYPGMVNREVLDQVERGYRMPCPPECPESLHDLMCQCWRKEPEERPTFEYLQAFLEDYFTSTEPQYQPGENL

Row | melting point [°C] | IC50 [1, 2] [µM] | IC50 ([1]; printed at the end of the Example 8 characterisation data, kinase not named at that place, read-out: IC50) [µM] | Structure (SMILES)
1 | 195 to 200 | < 1 | – | COc1ccc(N2C(=O)N(c3cccc(C#N)c3)c3nc(Nc4cccc(CCO)c4)ncc3C2C)cc1 (racemic) [Example 4, (±)-3-[7-[3-(2-hydroxy-ethyl)-phenylamino]-3-(4-methoxy-phenyl)-4-methyl-2-oxo-3,4-dihydro-2H-pyrimido[4,5-d]pyrimidin-1-yl]-benzonitrile]
2 | 128 to 145 | < 1 | – | CCN(CC)CCc1cccc(Nc2ncc3c(n2)N(c2cccc(C#N)c2)C(=O)N(c2ccc(OC)cc2)C3C)c1 (racemic) [Example 5b, (±)-3-[7-[3-(2-diethylamino-ethyl)-phenylamino]-3-(4-methoxy-phenyl)-4-methyl-2-oxo-3,4-dihydro-2H-pyrimido[4,5-d]pyrimidin-1-yl]-benzonitrile]
3 | 120 to 135 | < 1 | – | COc1ccc(N2C(=O)N(c3cccc(C#N)c3)c3nc(Nc4cccc(CCN(C)C)c4)ncc3C2C)cc1 (racemic) [Example 6, (±)-3-[7-[3-(2-dimethylamino-ethyl)-phenylamino]-3-(4-methoxy-phenyl)-4-methyl-2-oxo-3,4-dihydro-2H-pyrimido[4,5-d]pyrimidin-1-yl]-benzonitrile]
4 | 134 to 155 | < 1 | – | COc1ccc(N2C(=O)N(c3cccc(C#N)c3)c3nc(Nc4cccc(CCN5CCN(C)CC5)c4)ncc3C2C)cc1 (racemic) [Example 7, (±)-3-(3-(4-methoxy-phenyl)-4-methyl-7-{3-[2-(4-methyl-piperazin-1-yl)-ethyl]-phenylamino}-2-oxo-3,4-dihydro-2H-pyrimido[4,5-d]pyrimidin-1-yl)-benzonitrile]
5 | 170 to 175 | < 1 | 0.0045 | CCN(CC)CCc1cccc(Nc2ncc3c(n2)N(c2cccc(C(N)=O)c2)C(=O)N(c2ccc(OC)cc2)C3C)c1 (racemic) [Example 8, (±)-3-[7-[3-(2-diethylamino-ethyl)-phenylamino]-3-(4-methoxy-phenyl)-4-methyl-2-oxo-3,4-dihydro-2H-pyrimido[4,5-d]pyrimidin-1-yl]-benzamide]
6 | 215 to 230 | < 1 | – | COc1ccc(N2C(=O)N(c3cccc(C(N)=O)c3)c3nc(Nc4cccc(CCN(C)C)c4)ncc3C2C)cc1 (racemic) [Example 9, (±)-3-[7-[3-(2-dimethylamino-ethyl)-phenylamino]-3-(4-methoxy-phenyl)-4-methyl-2-oxo-3,4-dihydro-2H-pyrimido[4,5-d]pyrimidin-1-yl]-benzamide]
7 | 243 to 251 | < 1 | – | COc1ccc(N2C(=O)N(c3cccc(C(N)=O)c3)c3nc(Nc4cccc(CCN5CCN(C)CC5)c4)ncc3C2C)cc1 (racemic) [Example 10, (±)-3-(3-(4-methoxy-phenyl)-4-methyl-7-{3-[2-(4-methyl-piperazin-1-yl)-ethyl]-phenylamino}-2-oxo-3,4-dihydro-2H-pyrimido[4,5-d]pyrimidin-1-yl)-benzamide]
